Usually Ki stands for the dissociation constant of the complex between target and ligand, obtained from inhibition or displacement.

Some results are limits rather than exact numbers.

The target of the first assay is T1, Human Recombinant Matriptase 2 (Homo sapiens, UniProt Q8IU80).
T1 construct: made in house
T1 sequence (Q8IU80 1-811): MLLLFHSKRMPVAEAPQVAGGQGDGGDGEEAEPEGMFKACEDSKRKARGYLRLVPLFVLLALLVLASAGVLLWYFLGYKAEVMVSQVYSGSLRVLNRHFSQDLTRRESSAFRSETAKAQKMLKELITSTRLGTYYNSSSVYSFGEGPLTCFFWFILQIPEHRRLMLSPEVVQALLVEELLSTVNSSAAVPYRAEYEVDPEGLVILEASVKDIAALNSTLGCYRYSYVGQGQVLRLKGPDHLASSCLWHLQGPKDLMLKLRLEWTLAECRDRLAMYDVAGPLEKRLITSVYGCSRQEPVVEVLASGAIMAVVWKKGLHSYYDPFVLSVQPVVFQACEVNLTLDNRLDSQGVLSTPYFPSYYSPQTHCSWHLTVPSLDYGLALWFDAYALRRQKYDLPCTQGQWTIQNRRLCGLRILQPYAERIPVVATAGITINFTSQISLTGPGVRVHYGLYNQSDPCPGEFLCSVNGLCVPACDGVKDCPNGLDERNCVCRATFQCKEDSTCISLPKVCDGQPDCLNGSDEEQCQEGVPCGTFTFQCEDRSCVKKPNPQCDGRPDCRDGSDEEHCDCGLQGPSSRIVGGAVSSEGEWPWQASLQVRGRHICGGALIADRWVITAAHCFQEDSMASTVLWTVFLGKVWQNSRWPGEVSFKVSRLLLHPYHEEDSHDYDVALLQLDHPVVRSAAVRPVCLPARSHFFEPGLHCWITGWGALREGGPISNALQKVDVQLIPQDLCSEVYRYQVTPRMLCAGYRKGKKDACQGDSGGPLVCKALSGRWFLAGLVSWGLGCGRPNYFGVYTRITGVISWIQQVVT
Put plainly: Matriptase 2 inhibition, fluorescence based assay (Method I). It is filed as biochemical. The conditions noted are these: Table A; Ki of Matriptase-2; read-out: Mat-2 Ki. Put shortly:
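Fluorogenic readout (Ex 360/Em 480 nm) taken 60 min after adding 62 μM Boc-Gln-Ala-Arg-AMC, following 30-min enzyme–compound preincubation at 25 °C. Conditions: 3.5 nM in-house enzyme, pH 7.5 Tris/NaCl/gelatin buffer, 1% DMSO; percent inhibition versus concentration fitted by variable-slope sigmoidal regression.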
As to `CN1CCN(CCOC(=O)c2cc3ccc(CN)nc3n2Cc2cc(NS(=O)(=O)Cc3ccccc3)cc3ccccc23)CC1` [Compound 135, 2-(4-methylpiperazin-1-ylethyl 6-(aminomethyl)-1-{[3-(phenylmethane-sulfonamido)naphthalen-1-yl]methyl}-1H-pyrrolo-[2,3-b]pyridine-2-car-boxylate], the Ki is at most 100 nM.

Regarding `NCc1ccc2cc(C(=O)OCCC3CCOCC3)n(Cc3cc(NS(=O)(=O)Cc4ccsc4)cc4ccccc34)c2n1` [Compound 179, 2-(oxan-4-yl)ethyl 6-(aminomethyl)-1-({3-[(thiophen-3-yl)methane-sulfonamido]naphthalen-1-yl}methyl)-1H-pyr-rolo[2,3-b]pyridine-2-carboxylate], the Ki is 100 to 500 nM.

On to `NCc1ccc2cc(C(=O)OCCN3CCCC3)n(Cc3cc(NS(=O)(=O)Cc4ccsc4)cc4ccccc34)c2n1` [Compound 177, 2-(pyrrolidin-1-yl)ethyl 6-(aminomethyl)-1-({3-[(thiophen-3-yl)methane-sulfonamido]naphthalen-1-yl}methyl)-1H-pyr-rolo[2,3-b]pyridine-2-carboxylate], for which the Ki is at most 100 nM.

Take `Cc1cccc(C)c1CS(=O)(=O)Nc1cc(Cn2c(C(=O)O)cc3ccc(CN)nc32)c2ccccc2c1` [Compound 195, 6-(aminomethyl)-1-({3-[(2,6-dimethylphenyl)-methanesulfonamido]-naphthalen-1-yl}methyl)-1H-pyrrolo[2,3-b]pyr-idine-2-carboxylic acid]: the Ki was at most 100 nM.

For the compound `CN(C)CCOC(=O)c1cc2ccc(CN)nc2n1Cc1cc(NS(=O)(=O)Cc2cccs2)cc2ccccc12` [Compound 148, 2-(dimethylamino)ethyl 6-(aminomethyl)-1-({3-[(thiophen-2-yl)methane-sulfonamido]naphthalen-1-yl}methyl)-1H-pyr-rolo[2,3-b]pyridine-2-carboxylate], the Ki is at most 100 nM.

With `CN1CCC(CCNC(=O)c2cc3ccc(CN)nc3n2Cc2cc(NS(=O)(=O)Cc3ccsc3)cc3ccccc23)CC1` [Compound 162, 6-(aminomethyl)-N-[2-(1-methylpiperidin-4-yl)-ethyl]-1-({3-[(thiophen-3-yl)methanesulfon-amido]naphthalen-1-yl}-methyl)-1H-pyrrolo[2,3-b]pyridine-2-carboxamide], the Ki is at most 100 nM.

Staying with this assay, now noted: Table A; Ki of Matriptase-2 given as class symbols; read-out: Mat-2 Ki.
As for `C[C@@H]1CN(C(=O)Nc2cc(Cn3c(C(=O)O)cc4ccc(CN)nc43)c3ccccc3c2)CCN1` [Compound 295, 6-(aminomethyl)-1-[(3-{[(3R)-3-methylpipera-zine-1-carbonyl]amino}-naphthalen-1-yl)methyl]-1H-pyrrolo[2,3-b]pyr-idine-2-carboxylic acid], the Ki lay within 500 to 3000 nM.

In the case of `Cc1conc1CS(=O)(=O)Nc1cc(Cn2c(C(=O)O)cc3ccc(CN)nc32)c2ccccc2c1` [Compound 243, 6-(aminomethyl)-1-({3-[(4-methyl-1,2-oxazol-3-yl)methanesulfonamido]-naphthalen-1-yl}methyl)-1H-pyrrolo[2,3-b]pyr-idine-2-carboxylic acid], the Ki was in the range of 100 to 500 nM.

As for `NCc1ccc2cc(C(=O)O)n(Cc3cc(NS(=O)(=O)CC[C@@H]4CCCN4)cc4ccccc34)c2c1` [Compound 389, 6-(aminomethyl)-1-[(3-{2-[(2S)-pyrrolidin-2-yl]ethanesulfonamido}-naphthalen-1-yl)methyl]-1H-indole-2-carboxylic acid], the Ki is 100 to 500 nM.

Staying with this assay, now noted: Table B; Human Recombinant Matriptase 2, 3.5 nM enzyme, 62 μM substrate, 30 mins preincubation; read-out: Mean Ki.
For the compound `CN1CC(CCOC(=O)c2cc3ccc(CN)nc3n2Cc2cc(NS(=O)(=O)Cc3ccsc3)cc3ccccc23)CC1=O` (stereo not drawn) [Compound 2.6], the inhibitory constant (Ki) was at most 100 nM.

Take `CN1CCC(COC(=O)c2cc3ccc(CN)nc3n2Cc2cc(NS(=O)(=O)Cc3ccsc3)cc3ccccc23)CCC1=O` (stereo not drawn) [Compound 2.17]: the inhibitory constant (Ki) is at most 100 nM.

For the compound `CN1CC(COC(=O)c2cc3ccc(CN)nc3n2Cc2cc(NS(=O)(=O)Cc3ccccc3)cc3ccccc23)CC1=O` (stereo not drawn) [Compound 2.21], the inhibition constant Ki was at most 100 nM.

For the origin of these results see patent publication US20240400553A1, “AMINE BASED MATRIPTASE 2 INHIBITORS AND USES THEREOF” (Disc Medicine, Inc., priority 2023, published 2024).
